# Reference: patent US11046694B2, “Compounds and methods for treating bacterial infections” (Entasis Therapeutics, Inc., priority 2018, dated 2021)
# Counter-ions that a name gives are not always drawn. Like-named read-outs stand apart in the source and are kept apart here.
# Assays:
# E. coli (ATCC25922) = test: MIC against E. coli; conditions: Escherichia coli, ATCC25922, read-out: E. coli MIC (ATCC25922) (mg/L)
# P. aeruginosa PBP1a = P. aeruginosa PBP1a (Pseudomonas aeruginosa, UniProt Q07806); type: biochemical; conditions: P. aeruginosa PBP1a 60 nM, BOCILLIN FL 30 nM, pH 7.0
# P. aeruginosa PBP1a, sequence (Q07806 whole entry): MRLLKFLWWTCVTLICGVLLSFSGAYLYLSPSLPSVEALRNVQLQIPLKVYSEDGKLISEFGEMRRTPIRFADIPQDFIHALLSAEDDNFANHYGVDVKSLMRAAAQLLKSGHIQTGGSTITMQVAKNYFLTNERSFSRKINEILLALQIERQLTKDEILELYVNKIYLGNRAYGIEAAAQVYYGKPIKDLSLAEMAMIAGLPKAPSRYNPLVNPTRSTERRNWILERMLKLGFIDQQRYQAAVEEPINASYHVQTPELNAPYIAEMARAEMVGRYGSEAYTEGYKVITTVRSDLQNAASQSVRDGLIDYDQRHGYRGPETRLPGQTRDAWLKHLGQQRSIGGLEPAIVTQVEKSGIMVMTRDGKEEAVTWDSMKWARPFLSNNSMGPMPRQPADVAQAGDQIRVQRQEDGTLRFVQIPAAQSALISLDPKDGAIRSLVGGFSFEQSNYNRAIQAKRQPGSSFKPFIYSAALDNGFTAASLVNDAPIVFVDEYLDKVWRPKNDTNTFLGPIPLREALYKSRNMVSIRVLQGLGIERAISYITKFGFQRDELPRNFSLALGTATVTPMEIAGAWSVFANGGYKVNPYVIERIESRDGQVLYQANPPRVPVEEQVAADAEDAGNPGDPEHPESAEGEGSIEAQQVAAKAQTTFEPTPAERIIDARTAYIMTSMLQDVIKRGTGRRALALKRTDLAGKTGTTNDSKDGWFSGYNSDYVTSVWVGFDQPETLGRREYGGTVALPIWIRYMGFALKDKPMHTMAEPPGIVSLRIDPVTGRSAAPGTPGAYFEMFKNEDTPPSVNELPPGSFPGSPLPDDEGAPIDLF
# P. aeruginosa PBP3 = P. aeruginosa PBP3 (Pseudomonas aeruginosa, UniProt G3XD46); type: biochemical; conditions: P. aeruginosa PBP3 60 nM, BOCILLIN FL 30 nM, pH 7.0
# P. aeruginosa PBP3, sequence (G3XD46 whole entry): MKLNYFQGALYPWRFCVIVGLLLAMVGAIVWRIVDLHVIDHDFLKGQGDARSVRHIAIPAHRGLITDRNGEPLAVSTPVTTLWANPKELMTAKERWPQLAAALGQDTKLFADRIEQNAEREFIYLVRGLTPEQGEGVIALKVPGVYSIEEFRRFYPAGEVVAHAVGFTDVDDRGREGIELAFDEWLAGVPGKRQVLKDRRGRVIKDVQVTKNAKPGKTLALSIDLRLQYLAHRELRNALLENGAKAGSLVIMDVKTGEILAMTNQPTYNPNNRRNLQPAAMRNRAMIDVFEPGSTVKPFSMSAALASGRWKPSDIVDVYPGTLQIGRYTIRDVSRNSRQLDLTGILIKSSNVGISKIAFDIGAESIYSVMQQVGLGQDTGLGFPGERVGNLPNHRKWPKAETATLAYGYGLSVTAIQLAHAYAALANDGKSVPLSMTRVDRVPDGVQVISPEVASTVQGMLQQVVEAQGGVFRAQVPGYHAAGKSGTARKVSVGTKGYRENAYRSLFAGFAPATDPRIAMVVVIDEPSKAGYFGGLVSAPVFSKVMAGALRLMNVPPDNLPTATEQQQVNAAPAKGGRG
# [1] = system: K. pneumoniae (ATCC700603); test: MIC against K. pneumoniae; conditions: Klebsiella pneumoniae, ATCC700603, read-out: K. pneumoniae MIC (ATCC700603)
# A. baumannii (ARC3495) = test: MIC against A. baumannii; conditions: Acinetobacter baumannii, read-out: A. baumannii MIC (ARC3495) (mg/L)
# P. aeruginosa WT (PAO1) = test: MIC, CLSI broth microdilution, P. aeruginosa; type: cell-based; conditions: Pseudomonas aeruginosa
# [2] = PAO1, CLSI broth microdilution, read-out: P. aeruginosa WT (PAO1) MIC
MIC (E. coli (ATCC25922)) [mg/L],MIC [1] [µg/mL],MIC (A. baumannii (ARC3495)) [mg/L],MIC (P. aeruginosa WT (PAO1); [2]) [mg/L],SMILES,"PBP1a acylation rate, k(on) (M^−1 · s^−1) (P. aeruginosa PBP1a)","PBP3 acylation rate, k(on) (M^−1 · s^−1) (P. aeruginosa PBP3)","MIC (P. aeruginosa WT (PAO1); PAO1, read-out: P. aeruginosa WT (PAO1) MIC (mg/L)) [mg/L]"
< 8,> 16,> 16,8 to 16,CN/C(=N\OC(C)(C)C(=O)O)[C@@H]1c2c(cnn2C)[C@@H]2CN1C(=O)N2OS(=O)(=O)O [Example 63],"** (** represents a k(on) of 100 to 10,000 M^−1 · s^−1)","*** (*** represents a k(on) > 10,000 M^−1 · s^−1)",–
8 to 16,> 16,> 16,8 to 16,CN/C(=N\OC(=O)NCCC(N)=O)[C@@H]1c2c(cnn2C)[C@@H]2CN1C(=O)N2OS(=O)(=O)O (racemic) [Example 16],"** (** represents a k(on) of 100 to 10,000 M^−1 · s^−1)","*** (*** represents a k(on) > 10,000 M^−1 · s^−1)",–
< 8,> 16,> 16,8 to 16,CN/C(=N\OCC(=O)NC1CNC1)[C@@H]1c2c(cnn2C)[C@@H]2CN1C(=O)N2OS(=O)(=O)O (racemic) [Example 61],* (* represents a k(on) < 100 M^−1 · s^−1),"** (** represents a k(on) of 100 to 10,000 M^−1 · s^−1)",–
< 8,> 16,> 16,> 16,"CN1C(=O)CON=C1[C@@H]1c2c(cnn2C)[C@@H]2CN1C(=O)N2OS(=O)(=O)O [Example 64, ((4R,8S)-1-methyl-8-(4-methyl-5-oxo-5,6-dihydro-4H-1,2,4-oxadiazin-3-yl)-6-oxo-4,8-dihydro-1H-4,7-methanopyrazolo[3,4-e][1,3]diazepin-5(6H)-yl) hydrogen sulfate]","** (** represents a k(on) of 100 to 10,000 M^−1 · s^−1)","** (** represents a k(on) of 100 to 10,000 M^−1 · s^−1)",–
8 to 16,8 to 16,8 to 16,< 8,CN/C(=N\OC(=O)N[C@H]1CCNC1)[C@@H]1c2c(cnn2C)[C@@H]2CN1C(=O)N2OS(=O)(=O)O (racemic) [Example 24],"** (** represents a k(on) of 100 to 10,000 M^−1 · s^−1)","*** (*** represents a k(on) > 10,000 M^−1 · s^−1)",–
8 to 16,> 16,8 to 16,< 8,CN/C(=N\OC(=O)NCCCN)[C@@H]1c2c(cnn2C)[C@@H]2CN1C(=O)N2OS(=O)(=O)O (racemic) [Example 25],"** (** represents a k(on) of 100 to 10,000 M^−1 · s^−1)","*** (*** represents a k(on) > 10,000 M^−1 · s^−1)",–
8 to 16,8 to 16,> 16,8 to 16,"CN/C(=N\OS(N)(=O)=O)[C@@H]1c2c(cnn2C)[C@@H]2CN1C(=O)N2OS(=O)(=O)O [Example 46, (4R,8S)-1-methyl-8-((Z)—N-methyl-N′-(sulfamoyloxy)carbamimidoyl)-6-oxo-4,8-dihydro-1H-4,7-methanopyrazolo[3,4-e][1,3]diazepin-5(6H)-yl hydrogen sulfate]","** (** represents a k(on) of 100 to 10,000 M^−1 · s^−1)","*** (*** represents a k(on) > 10,000 M^−1 · s^−1)",–
8 to 16,8 to 16,8 to 16,< 8,"CN/C(=N\OCC(N)=O)[C@@H]1c2c(cnn2C)[C@@H]2CN1C(=O)N2OS(=O)(=O)O [Example 57, pyridium (4R,8S)-8-((Z)—N′-(2-amino-2-oxoethoxy)-N-methylcarbamimidoyl)-1-methyl-6-oxo-4,8-dihydro-1H-4,7-methanopyrazolo[3,4-e][1,3]diazepin-5(6H)-yl hydrogen sulfate]","** (** represents a k(on) of 100 to 10,000 M^−1 · s^−1)","*** (*** represents a k(on) > 10,000 M^−1 · s^−1)",–
8 to 16,8 to 16,> 16,< 8,"CN/C(=N\OCC(=O)O)[C@@H]1c2c(cnn2C)[C@@H]2CN1C(=O)N2OS(=O)(=O)O [Example 62, 2-((((Z)-((4R,8S)-1-methyl-6-oxo-5-(sulfooxy)-4,5,6,8-tetrahydro-1H-4,7-methanopyrazolo[3,4-e][1,3]diazepin-8-yl)(methylamino)methylene)amino)oxy)acetic acid]","** (** represents a k(on) of 100 to 10,000 M^−1 · s^−1)","*** (*** represents a k(on) > 10,000 M^−1 · s^−1)",–
8 to 16,> 16,8 to 16,< 8,CN/C(=N\OC(=O)N[C@H]1CC[C@H](N)CC1)[C@@H]1c2c(cnn2C)[C@@H]2CN1C(=O)N2OS(=O)(=O)O (racemic) [Example 30],"** (** represents a k(on) of 100 to 10,000 M^−1 · s^−1)","*** (*** represents a k(on) > 10,000 M^−1 · s^−1)",–
< 8,< 8,< 8,< 8,CN/C(=N\OC(=O)NC1CNC1)[C@@H]1c2c(cnn2C)[C@@H]2CN1C(=O)N2OS(=O)(=O)O (racemic) [Example 26],"** (** represents a k(on) of 100 to 10,000 M^−1 · s^−1)","*** (*** represents a k(on) > 10,000 M^−1 · s^−1)",–
< 8,> 16,> 16,> 16,CN1C(=O)C(C)(C)ON=C1[C@@H]1c2c(cnn2C)[C@@H]2CN1C(=O)N2OS(=O)(=O)O [Example 65],"** (** represents a k(on) of 100 to 10,000 M^−1 · s^−1)","** (** represents a k(on) of 100 to 10,000 M^−1 · s^−1)",–
< 8,> 16,> 16,> 16,CN/C(=N\OC(=O)NCCCC[C@H](N)C(=O)OC(C)(C)C)[C@@H]1c2c(cnn2C)[C@@H]2CN1C(=O)N2OS(=O)(=O)O (racemic) [Example 32],"** (** represents a k(on) of 100 to 10,000 M^−1 · s^−1)","*** (*** represents a k(on) > 10,000 M^−1 · s^−1)",–
< 8,< 8,8 to 16,< 8,"CN/C(=N\O)[C@@H]1c2c(cnn2CC(N)=O)[C@@H]2CN1C(=O)N2OS(=O)(=O)O [Example 50, (4R,8S)-1-(2-amino-2-oxoethyl)-8-((Z)—N′-hydroxy-N-methylcarbamimidoyl)-6-oxo-4,8-dihydro-1H-4,7-methanopyrazolo[3,4-e][1,3]diazepin-5(6H)-yl sulfate]","** (** represents a k(on) of 100 to 10,000 M^−1 · s^−1)","*** (*** represents a k(on) > 10,000 M^−1 · s^−1)",–
8 to 16,> 16,8 to 16,8 to 16,"CN/C(=N\OC(=O)NCCNC(N)=O)[C@@H]1c2c(cnn2C)[C@@H]2CN1C(=O)N2OS(=O)(=O)O [Example 42, (4R,8S)-1-methyl-8-((Z)—N-methyl-N′-(((2-ureidoethyl)carbamoyl)oxy)carbamimidoyl)-6-oxo-4,8-dihydro-1H-4,7-methanopyrazolo[3,4-e][1,3]diazepin-5(6H)-yl hydrogen sulfate]","** (** represents a k(on) of 100 to 10,000 M^−1 · s^−1)","*** (*** represents a k(on) > 10,000 M^−1 · s^−1)",–
< 8,> 16,> 16,8 to 16,CN/C(=N\OC(=O)NCCC(=O)O)[C@@H]1c2c(cnn2C)[C@@H]2CN1C(=O)N2OS(=O)(=O)O (racemic) [Example 27],"** (** represents a k(on) of 100 to 10,000 M^−1 · s^−1)","*** (*** represents a k(on) > 10,000 M^−1 · s^−1)",–

SMILES,MIC (E. coli (ATCC25922)) [mg/L],MIC [1] [µg/mL],MIC (A. baumannii (ARC3495)) [mg/L],MIC (P. aeruginosa WT (PAO1); [2]) [mg/L],"PBP1a acylation rate, k(on) (M^−1 · s^−1) (P. aeruginosa PBP1a)","PBP3 acylation rate, k(on) (M^−1 · s^−1) (P. aeruginosa PBP3)","MIC (P. aeruginosa WT (PAO1); PAO1, read-out: P. aeruginosa WT (PAO1) MIC (mg/L)) [mg/L]"
CN/C(=N\OC(=O)NO)[C@@H]1c2c(cnn2C)[C@@H]2CN1C(=O)N2OS(=O)(=O)O (racemic) [Example 17],8 to 16,8 to 16,> 16,8 to 16,"** (** represents a k(on) of 100 to 10,000 M^−1 · s^−1)","*** (*** represents a k(on) > 10,000 M^−1 · s^−1)",–
"CN/C(=N\OC(C)=O)[C@@H]1c2c(cnn2C)[C@@H]2CN1C(=O)N2OS(=O)(=O)O [Example 69, pyridium (4R,8S)-8-((Z)—N′-acetoxy-N-methylcarbamimidoyl)-1-methyl-6-oxo-4,8-dihydro-1H-4,7-methanopyrazolo[3,4-e][1,3]diazepin-5(6H)-hydrogen sulfate]",8 to 16,8 to 16,> 16,> 16,"** (** represents a k(on) of 100 to 10,000 M^−1 · s^−1)","*** (*** represents a k(on) > 10,000 M^−1 · s^−1)",–
CNC(=O)O/N=C(\NC)[C@@H]1c2c(cnn2C)[C@@H]2CN1C(=O)N2OS(=O)(=O)O (racemic) [Example 20],8 to 16,> 16,8 to 16,–,"** (** represents a k(on) of 100 to 10,000 M^−1 · s^−1)","*** (*** represents a k(on) > 10,000 M^−1 · s^−1)",8 to 16
